Source: article PMC11253633, “Robust leishmanicidal upshot of some new diphenyl triazine-based molecules” (RSC Advances, 2024)
Entries after “also recorded” stand apart in the source; their conditions may differ.

How the values were obtained:
[1] = test system: amastigote; parameters: method as in PMID 29702355; details: read-out: IC50 against amastigote; cited from earlier work
[2] = test system: promastigote; parameters: method as in PMID 29702355; details: read-out: IC50 against promastigote; cited from earlier work
[3] = test system: L. donovani promastigotes; test: Dose-dependent anti-promastigote activity and determination of IC50 (MTT); format: cell-based; details: Leishmania donovani, 72 h, 3 days at 26 °C
Procedure: MTF was used as a standard antileishmanial drug control. The cell viability was evaluated (by MTT Assay) and the mean percentage viability was calculated as follows: Mean cell number of treated parasites/mean cell number of untreated parasites × 100. The 50 and 90% inhibitory concentration (IC50) i.e., the concentration of drugs that decreased the cell growth by 50 and 90% respectively, was determined by graphical extrapolation after plotting the graph of percentage viability vs. concentration of the drug.[31]
Parasite viability was not affected by DMSO (0.2%, data not shown) used as solvent control.[33]

[4] = test system: Human macrophage THP-1 cell line; test: Cytotoxicity assay on THP-1 cell line (MTT); format: cell-based; details: 3.125–100 μM
Procedure: The cell lines were incubated for 48 h at 37 °C in a CO2 incubator with increasing concentrations of test compounds and viability was ascertained. Each point or bar corresponds to the mean ± SEM of triplicate samples and is representative of one of three independent experiments.
THP-1 human monocytic cells were grown at 37 °C in medium RPMI-1640 (pH 7.4, Sigma-Aldrich, St. Louis, MO, USA) supplemented with 10% heat-inactivated FBS for 48 to 72 h in a humidified atmosphere of 5% CO2 and sub-cultured in fresh RPMI-1640 medium at an average density 2 × 10^5 cells per mL (Sharma et al. 2023).[30]
Human macrophage THP-1 cell line of 0.5 × 10^6 cells per mL seeded in RPMI-1640 medium (Sigma-Aldrich, USA) supplemented with 10% FBS (GIBCO) in presence of 5% CO2 at 37 °C in triplicate in 96 well culture plate. The cells were treated with two-fold serially diluted concentrations (100–3.125 μM) of the candidate molecules for 72 h. The IC50 was calculated using MTT assay (Sharma et al. 2023).[30]

[5] = test system: L. donovani promastigotes; test: Determination of promastigote cellular morphology (light microscopy); format: cell-based, Leishmania donovani; details: 25, 50 and 100 μM, 72 h, light microscopy 40×
Procedure: For the evident of morphological changes, the promastigotes (Fig. 3 (C to L)) were incubated in presence of compound T7, T4 and control Ampho B with the different concentration 25 μM, 50 μM, 100 μM shown in (Fig. 3C to L) were analysed by light microscopy (40×magnification) compared to untreated cells (Fig. 4A).
Fig. 4 Morphological Analysis of promastigote stage cells treated with compound T4 and MTF, compared to the untreated control (A) and DMSO treated control (B). Exponential-phase promastigotes (1 × 10^6 cells per mL) were incubated with 25 μm, 50 μm and 100 μm and analysed by light microscopy (40× magnification). (A) Untreated control (B) DMSO Treated cells (C–E) Ampho B, (F–H) T4 and T7 (I–K) at 25, 50, and 100 μM respectively. Scale bar in all is 10 μm.
Variations in the cellular morphology of Leishmania parasites due to the treatment with compounds T4 and T7 was detected microscopically. Briefly, the promastigotes (1× 10^6 cells per mL) were incubated in the absence or presence of test compounds and MTF and AmphoB for 72 h with different concentrations and observed under 40× objective of a phase-contrast microscope. […] Data were recorded by using NIS-Elements imaging software.[32]

[6] = test system: L. donovani promastigotes; test: Anti-leishmanial screening against L. donovani promastigotes at a single concentration (MTT); format: cell-based, Leishmania donovani; details: 72 h at 26 °C, MTT
Procedure: Each candidate was evaluated for its in vitro activity against reference strain (MHOM/IN/83/AG83) of extracellular promastigotes and intracellular amastigotes of L. donovani.
Promastigotes were routinely cultured at 26 °C in medium M199 supplemented with 10% heat inactivated fetal bovine serum (FBS, Gibco Laboratories, Mumbai, India), penicillin 100 (IU mL^−1), streptomycin (100 μg mL^−1). Log phase promastigotes were sub-cultured every 72–96 h, the inoculum being 2 × 10^6 cells per mL.[29]
The triazin hybrids series was evaluated for their antileishmanial ability against L. donovani promastigotes in vitro. Promastigotes of L. donovani (1× 10^6 cells per mL) in M199 medium were incubated at 26 °C for 72 h with each compound at a concentration of 100 μM. Miltefosine (MTF) was used as a reference drug, 0.2% DMSO as solvent control. Parasites with media alone were taken as control. Parasite viability was achieved by MTT assay after 72 h (Sharma et al. 2023).[30]

[7] = test system: L. donovani amastigotes; test: Anti-amastigote assay in infected THP-1 macrophages (Giemsa); format: cell-based, Leishmania donovani; details: for IC50: infected THP-1 macrophages, 72 h
Procedure: To evaluate the anti-leishmanial effect of the compound T4 and T7 on intracellular L. donovani parasites, macrophage was infected with stationary -phase L. donovani for 6 h. The cells were then washed with saline to remove any non-internalised parasites. To assess the effect of compounds T4 and T7 on intracellular parasites at early stages of infection, macrophages were subsequently treated with T4 and T7 at concentrations of 100, 50, 25, 12.5, or 6.25 μM (refer to Table 3 and Fig. 7) for 6, 24, or 48 hours.
THP-1 cells (5 × 10^5 cells per mL) were cultivated in RPMI-1640 media (Roswell Park Memorial Institute 1640) (Sigma-Aldrich, USA), supplemented with 10% fetal calf serum and maintained at 37 °C with 5% CO2 using phorbol ester as the inducer. These cells were added on circular coverslips (1 × 10^6 cells per mL). Promastigotes of L. donovani were introduced at 1 : 20 ratio. Treatment of the samples was carried out at doses of 100, 50, 25, 12.5, 6.25 and 3.125 μM/72 h. After being taken off, the coverslips were stained with Giemsa. The rate of macrophage infection was then ascertained.

[8] = test system: L. infantum; parameters: method as in PMID 30817917; details: cited from earlier work
[9] = test system: L. amazonensis; parameters: method as in PMID 30817917; details: cited from earlier work

SMILES: Clc1cc(Cl)ncn1 [compound 5]
- IC50 [1]: < 25 µM
- IC50 [2]: < 25 µM

SMILES: COc1ccc(C(=O)CCSc2nnc(-c3ccccc3)c(-c3ccccc3)n2)cc1OC [T4, 1-(3,4-Dimethoxyphenyl)-3-((5,6-diphenyl-1,2,4-triazin-3-yl)thio)propan-1-one]
- IC50 [3]: 1.07 µM
- Cytotoxicity on THP-1 human macrophages (in words) [4]: nontoxic; also recorded: no adverse effects; also recorded: Absence of adverse toxicity
- melting point: 210 to 212 °C
- Cellular morphological alterations in promastigotes (in words) [5]: loss of flagella
- % Inhibition of L. donovani promastigotes ([6]; 100 μM): 99.67%
- inhibition at 100 µM ([6]; Leishmania donovani, 72 h): > 90%
- Percentage reduction of parasites (amastigote) ([7]; 6.25 μM): 66%
- Percentage reduction of parasites (amastigote) ([7]; 12.5 μM): 68.80%
- Percentage reduction of parasites (amastigote) ([7]; 25 μM): 70%
- Percentage reduction of parasites (amastigote) ([7]; 50 μM): 74%
- Percentage reduction of parasites (amastigote) ([7]; 100 μM): 78.0%
- Inhibitory activity against amastigotes (in words) ([7]; 100–6.25 μM, infected macrophages): good inhibitory activity; also recorded: capable of inhibiting the growth
- IC50 ([7]; Leishmania donovani, THP-1, 72 h): 5.18 µM
- IC50 [7]: 7.19 µM

SMILES: CN(C)c1ccnc2cc(Cl)ccc12 [7-chloro-N, N-dimethylquinolin-4-amine]
- selectivity index against the axenic amastigotes ([8]; L. infantum axenic amastigotes): 137.6
- selectivity index against the promastigotes ([8]; L. infantum promastigotes): 154.6
- selectivity index against the axenic amastigotes ([9]; L. amazonensis axenic amastigotes): 74.3
- selectivity index against the promastigotes ([9]; L. amazonensis promastigotes): 86.4
